Measurements reported in patent US11648199B2 (AI Therapeutics, Inc, priority 2014, dated 2023).
“And” between values parts separate entries of the source, which are not always exact repeats. Equal entries are not always repeated. Where two headings read alike, the source gives them in different places.

What was measured:
[1] = Biodistribution of rapamycin via inhalation, first study (single dose and 5 days)
in vivo = conditions: Sprague-Dawley, rat, inhaled
[2] = sirolimus in lymphangioleiomyomatosis; cited from earlier work
[3] = Particle size distribution by laser diffraction after size reduction; type: physicochemical
Protocol: For jet milling, a lab scale MCOne unit from Jetpharma was used with the following operating conditions: venturi pressure 2-4 bar, milling pressure 3-5 bar, feed rate 90 g/h. For wet polishing, feed suspensions were prepared using purified water. A microfluidics high pressure homogenizer was used for the size reduction step and the resulting suspension was spray-dried. Details of the wet polishing process are set forth below.
The high pressure homogenizer used for the size reduction step of the wet polishing process was a pilot-scale Microfluidics High Pressure Homogenizer equipped with an auxiliary processing module (200 micron) and a 100 micron interaction chamber was used. The unit was operated at ˜455 bar (˜30 bar in the intensifier module hydraulic pressure). After microfluidization the fluid was removed by spray drying to generate a dry powder. A laboratory scale spray dryer, SD45 (BÜCHI, model B-290 Advanced) was equipped with a two fluid nozzle (cap and diameter were 1.4 and 0.7 mm, respectively). Two cyclones in series were used (being the first the standard Buchi cyclone and the second the high-performance Buchi cyclone) to collect the dried product. The spray drying unit was operated with nitrogen and in single pass mode, i.e. without recirculation of the drying nitrogen. The aspirator, blowing nitrogen, was set at 100% of its capacity (flow rate at maximum capacity is approximately 40 kg/h). The flow rate of the atomization nitrogen was adjusted to a value in the rotameter of 40±5 mm. Before feeding the product suspension, the spray dryer was stabilized with purified water, during which the flow rate was adjusted to 6 ml/min (20% in the peristaltic pump). The inlet temperature was adjusted to achieve the target outlet temperature (45° C.). After stabilization of the temperatures, the feed of the spray dryer was commuted from purified water to the product suspension (keeping the same flow rate used during stabilization) and the inlet temperature once again adjusted in order to achieve the target outlet temperature. At the end of the stock suspension, the feed was once more commuted to purified water in order to rinse the feed line and perform a controlled shut down. The dry product in the collection flasks under both cyclones was weighed and the yield calculated as the mass percentage of the dry product in relation to the total solids in the suspension fed to the high pressure homogenizer.
Particle size distribution was analyzed by laser diffraction. Solid state characterization (for polymorphic form and purity) was performed by high pressure liquid chromatography (HPLC), X-ray powder diffraction (XRPD), and differential scanning calorimetry (mDSC). Water content was determined by the Karl Fischer method.

[4] = IV 10 mg/kg, 24 hours after single dose; cited from earlier work
[5] = test system: phosphorylated S6 protein (mTOR activity); assay: Phosphorylated S6 in mouse lung after OPA or oral rapamycin; type: in vivo, C57bl/6 mice
Excerpt: To validate this approach, we used the presence of phosphorylated S6 protein in murine lung tissue as a biomarker for mTOR activity. In the mouse strain used (C57b1/6), the mouse airway and alveolar epithelial cells have constitutively active (phosphorylated, “p”) S6 protein. The S6 protein is typically phosphorylated by S6K which is downstream of mTORC1 and is activated, for example, downstream of growth factors such as epidermal growth factor (EGF), AKT, ERK, and RSK. mTORC1 promotes cell growth and proliferation by stimulating anabolic processes such as biosynthesis of lipids, proteins, and organelles, and suppressing catabolic processes such as autophagy.

[6] = test system: Phospho-S6 Ribosomal Protein (Ser240/244); assay: S6-P/total S6 western blot of rat lung homogenates after inhalation; type: in vivo, Sprague-Dawley rats; conditions: inhaled, target dose 0.354 mg/kg (FIG. 8B)
Protocol: Lungs samples from each animal were collected and snap frozen. The individual frozen lung samples were homogenized (Qiagen TissueLyser LT according to manufacturer's protocols) in 1×RIPA Buffer with protease and phosphatase inhibitors. […] The Western blot images were analyzed by NIH imageJ v1.48 to generate the respective antibody reactivity/intensity and create the ratio of S6 phosphorylation (S6-P) to total S6 intensities for each lung sample. The S6-P/total S6 ratios (y-axis) for sample organized by timepoint group (X-axis) were plotted on a one grouping variable scatter plot vertical graph (GraphPad, version 4.0), all samples in groups are represented by filled in black dots (●) on the graph and average is shown by the horizontal line between the dots within each respective group (FIG. 8B).

[7] = test system: TSC2 deficient TRI-AML101 cell line; assay: Cell viability, 10 point dose response, CellTiter-Glo; conditions: 72 hours after compound addition, relative to DMSO control (FIG. 7, bottom)
Protocol: Two thousand cells in 50 uL of growth media (DMEM, 10% FBS, and 1% Penicillin/Streptomycin) were plated per well in a 96 well plate. […] 72 hours after compound addition, relative cell viability was determined by CellTiter-Glo® luminescence assay (Promega) and expressed as a percentage relative to vehicle (DMSO) treated control cells.

[8] = Lung concentration of rapamycin after inhalation, Study Day 1; type: in vivo, Sprague-Dawley rats
Excerpt: The results of this initial study were replicated and expanded in additional rat studies and dog studies. […] Two sets of animals were used to perform the toxicokinetic measurements for this study.

[9] = clinical use; cited from earlier work
[10] = Observation for adverse effects / clinical signs after OPA dosing; conditions: for adverse effects / clinical signs: 1 mg/kg, up to 72 h after dosing
Protocol: The oral dose was formulated using pharmaceutical oral liquid formulation Rapamune Oral® (Pfizer). […] An additional group of 6 mice received vehicle only (10% ethanol in water). […] At the 72-h necropsy, blood was obtained by cardiac puncture and the lungs removed.
The time of dosing was recorded as 0. Animals in groups 2 and 3 were euthanized at 1 h after dosing.

[11] = inhaled 0.0360 mg/kg/day once a day, trough day 5
[12] = inhaled 1.0000 mg/kg/day once a day, trough day 5

With `CO[C@H]1C[C@@H]2CC[C@@H](C)[C@@](O)(O2)C(=O)C(=O)N2CCCC[C@H]2C(=O)O[C@H]([C@H](C)C[C@@H]2CC[C@@H](O)[C@H](OC)C2)CC(=O)[C@H](C)/C=C(\C)[C@@H](O)[C@@H](OC)C(=O)[C@H](C)C[C@H](C)/C=C/C=C/C=C/1C` [Rapamycin, (3 S,6R,7E,9R,10R,12R,14S,15E,17E,19E,21S,23 S,26R,27R,34aS)-9,10,12,13,-14,21,22,23,24,25,26,27,32,33,34,34a-hexadecahydro-9,27-dihydroxy-3-[(1R)-2-[(1S,3R,4R)-4-hydroxy-3-methoxycyclohexyl]-1-methylethyl]-10,21-dimethox-y-6,8,12,14,20,26-hexamethyl-23,27-epoxy-3H-pyrido[2,1-c][1,4]oxaazacyclohentriacontine-1,5,11,28,29(4H,6H,31H)-pentone] the “Rapamycin in Blood” value [1, 11] was 4 ng/mL, the “Rapamycin in Lung” value [1, 11] was 87 ng/g and the “Rapamycin in Blood” value [1, 12] was 746 ng/mL. For the same compound, the “Rapamycin in Lung” value [1, 12] was 17163 ng/g, the “Rapamycin in Lung” value ([1]; inhaled 1.00 mg/kg/day, 12 hrs after a single dose) was 14831 ng/g and the concentration at 12 h (in vivo; lung, 0.036 mg/kg/day) was 95 ng/g. The concentration at 12 h (in vivo; lung, 1 mg/kg/day) was roughly 14800 ng/g, the concentration at 12 h (in vivo; whole blood, 0.036 mg/kg/day) was 4 ng/mL and the concentration at 12 h (in vivo; whole blood, 1 mg/kg/day) was 645 ng/mL. For the same compound, the blood concentrations reported [2] was 5 to 15 ng/mL, the “PSD Dv10” value ([3]; jet milling) was 1.5 μm and 1.51 μm and the “PSD Dv50” value ([3]; jet milling) was 2.7 μm and 2.74 μm. For the same compound, the “PSD Dv90” value ([3]; jet milling) was 4.9 μm and 4.91 μm, the “PSD Dv10” value ([3]; wet polishing) was 1.51 μm and the “PSD Dv50” value ([3]; wet polishing) was 2.74 μm. The “PSD Dv90” value ([3]; wet polishing) was 5.0 μm and 4.91 μm, the “Rapamycin in Blood” value [4] was 31 ng/mL and the “Rapamycin in Lung” value [4] was 721 ng/g. The “level of phosphorylated S6 (pS6) in lung” value ([5]; OPA 1 mg/kg, 1 hr (FIG. 8A)) was “reduced substantially”, the “level of phosphorylated S6 (pS6) in lung” value ([5]; OPA 1 mg/kg, 72 hr (FIG. 8A)) was “remained suppressed” and the “level of phosphorylated S6 (pS6) in lung” value ([5]; oral gavage 1 mg/kg, 1 hr (FIG. 8A)) was “reduced substantially”. The “S6 phosphorylation in lung tissue” value [6] was “Inhibits S6 Phosphorylation”, the “lowest concentration at which viability was inhibited” value [7] was 0.05 nM and the concentration at 2 h post-dosing ([8]; Sprague-Dawley, rat, lung, inhaled, target dose 11 ug Day 1, 2 hr post-dosing, read-out: Avg Lung rapa) was 250 ng/g. The concentration at 4 h post-dosing ([8]; Sprague-Dawley, rat, lung, inhaled, target dose 11 ug Day 1, 4 hr post-dosing, read-out: Avg Lung rapa) was 192 ng/g, the concentration at 12 h post-dosing ([8]; Sprague-Dawley, rat, lung, inhaled, target dose 11 ug Day 1, 12 hr post-dosing, read-out: Avg Lung rapa) was 95 ng/g and the “Avg Lung rapa” value ([8]; target dose 11 ug Day 1, immediate post-dosing) was 560 ng/g. For the same compound, the “Avg Lung rapa” value ([8]; target dose 11 ug Day 1, midway dosing) was 462 ng/g, the lung toxicity [9] was “pulmonary toxicity, usually in the form of interstitial pneumonitis” and the “adverse effects / clinical signs” value [10] was “No significant clinical signs were observed”. For the same compound, the “adverse effects / clinical signs” value ([10]; listed as rapamycin) was “No adverse effects were observed” and the “acute toxicity to lung tissue” value ([10]; OPA 1 mg/kg, relatively high amounts in lung) was “not acutely toxic to lung tissue”.
